Calls of active or inactive are those of the source.
Key:
Cytochrome P450 2C19 = Cytochrome P450 2C19 (Homo sapiens, UniProt P33261); experiment: Cytochrome panel assay with activity outcomes. Panel member name: p450-cyp2c19 Compounds with AC50 equal or less than 10 uM are considered active; format: functional; conditions: read-out: AC50
Cytochrome P450 1A2 = target: T1, Cytochrome P450 1A2 (Homo sapiens, UniProt P05177);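 also: PubChem cytochrome P450 panel assay, CYP1A2 panel member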
T1 sequence (P05177 whole entry): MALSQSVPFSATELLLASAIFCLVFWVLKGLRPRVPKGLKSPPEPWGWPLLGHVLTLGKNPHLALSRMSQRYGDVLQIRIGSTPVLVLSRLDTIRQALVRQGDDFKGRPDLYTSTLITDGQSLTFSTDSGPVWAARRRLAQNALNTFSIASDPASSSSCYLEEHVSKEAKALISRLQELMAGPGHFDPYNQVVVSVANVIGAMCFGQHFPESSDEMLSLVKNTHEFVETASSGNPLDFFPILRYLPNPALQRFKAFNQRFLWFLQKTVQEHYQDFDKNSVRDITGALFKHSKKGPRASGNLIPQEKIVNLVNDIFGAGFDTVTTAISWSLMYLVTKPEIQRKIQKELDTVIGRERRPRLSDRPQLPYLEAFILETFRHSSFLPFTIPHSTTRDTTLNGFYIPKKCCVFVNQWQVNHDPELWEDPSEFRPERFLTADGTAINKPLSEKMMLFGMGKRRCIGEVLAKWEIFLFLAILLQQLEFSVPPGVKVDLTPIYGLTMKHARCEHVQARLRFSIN

Cytochrome P450 3A4 = Cytochrome P450 3A4 (Homo sapiens, UniProt P08684);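 also: CYP3A4 tested as one member of a cytochrome P450 panel screen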
[1] = target: T2, Polyadenylate-binding protein 1 (Homo sapiens, UniProt P11940); experiment: MLLE binding blockers, Cy5 peptide tracer – biochemical, fluorescence polarization, Cy5-PAM2 peptide, secondary, miRNA deadenylation inhibitor project, dose response (AID 602260); format: functional; conditions: read-out: IC50_Mean
[2] = target: T2, Polyadenylate-binding protein 1; experiment: MLLE domain peptide-binding blockers, IC50 – biochemical, fluorescence polarization, FITC-PAM2 peptide, dose response (AID 602259); format: functional; conditions: read-out: IC50_Mean
[3] = alpha-synuclein stem-loop luciferase translation blockers – H4 neuroglioma cells, luminescence, confirmation (AID 1988); format: functional, cell-based
[4] = luciferase reporter signal suppression in cells – H4 neuroglioma cells, luminescence, dose response (AID 1990); format: functional, cell-based
[5] = Luminescence Cell-Based Dose Response HTS to Identify Inhibitors of 5'UTR Stem-Loop Driven Prion Protein mRNA Translation in H4 Neuroglioblastoma Cells. [Related pubchem assays: 1827 (Project Summary), 1813 (Primary HTS)]; format: functional
[6] = viability of PTEN-deleted HCT116 cells – cell-based, HCT116 PTEN knockout, dose response (AID 1047); format: functional;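 also: HCT116 colon tumor cells with PTEN knocked out; cells exposed to compound for 60 hours before readout; potency for loss of cell viability measured by luminescence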
[7] = viability of HCT116 lacking mutant beta-catenin – cell-based, human colon tumor, dose response (AID 1045); format: functional;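 also: HCT116 colon tumor cells with beta catenin knocked out; cells exposed to compound for 60 hours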
Cytochrome P450 2D6 = Cytochrome P450 2D6 (Homo sapiens, UniProt P10635);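 also: CYP2D6 member of a cytochrome P450 panel assay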
INS1 = experiment: INS-1E survival protection against cytokine death – cell-based, luminescence, retest, dose response (AID 449756); format: functional; conditions: Rattus norvegicus;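 also: cell death triggered by IL-1 beta plus TNF-alpha plus IFN-gamma mixture; protective hits raise ATP signal compared with cytokine alone wells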

T2 sequence (P11940 whole entry, the tested form may be a part): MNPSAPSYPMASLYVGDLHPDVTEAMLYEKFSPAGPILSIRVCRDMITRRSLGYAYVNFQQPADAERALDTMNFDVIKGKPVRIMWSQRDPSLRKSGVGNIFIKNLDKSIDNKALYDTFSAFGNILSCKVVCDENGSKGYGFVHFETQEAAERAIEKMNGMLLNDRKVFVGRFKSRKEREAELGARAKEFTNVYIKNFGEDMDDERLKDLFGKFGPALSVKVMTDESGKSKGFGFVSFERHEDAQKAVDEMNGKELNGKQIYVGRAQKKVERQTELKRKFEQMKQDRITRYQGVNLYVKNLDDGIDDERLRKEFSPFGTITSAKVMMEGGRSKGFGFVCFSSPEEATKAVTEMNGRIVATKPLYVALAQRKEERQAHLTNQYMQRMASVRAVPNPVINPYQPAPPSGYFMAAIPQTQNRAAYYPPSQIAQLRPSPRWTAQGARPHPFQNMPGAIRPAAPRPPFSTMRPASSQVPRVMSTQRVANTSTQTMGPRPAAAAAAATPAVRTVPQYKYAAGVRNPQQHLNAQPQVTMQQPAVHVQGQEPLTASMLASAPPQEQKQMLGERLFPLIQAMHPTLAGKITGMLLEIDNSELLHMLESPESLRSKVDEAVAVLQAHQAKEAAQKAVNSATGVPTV
Chain of Cytochrome P450 2C19 (P33261 whole entry): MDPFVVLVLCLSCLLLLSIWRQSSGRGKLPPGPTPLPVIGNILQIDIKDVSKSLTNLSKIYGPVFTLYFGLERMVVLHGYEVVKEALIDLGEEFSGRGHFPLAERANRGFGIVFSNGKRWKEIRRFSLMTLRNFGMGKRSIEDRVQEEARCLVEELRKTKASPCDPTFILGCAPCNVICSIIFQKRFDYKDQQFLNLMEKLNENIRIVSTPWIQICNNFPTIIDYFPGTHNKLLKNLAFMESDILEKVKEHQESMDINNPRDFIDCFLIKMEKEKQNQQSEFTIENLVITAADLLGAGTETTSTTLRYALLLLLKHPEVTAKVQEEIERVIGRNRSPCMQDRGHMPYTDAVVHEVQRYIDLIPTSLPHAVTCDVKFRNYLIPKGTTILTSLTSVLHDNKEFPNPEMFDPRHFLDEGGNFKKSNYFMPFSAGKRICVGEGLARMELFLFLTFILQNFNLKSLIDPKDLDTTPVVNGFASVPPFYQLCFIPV
Chain of Cytochrome P450 3A4 (P08684 whole entry): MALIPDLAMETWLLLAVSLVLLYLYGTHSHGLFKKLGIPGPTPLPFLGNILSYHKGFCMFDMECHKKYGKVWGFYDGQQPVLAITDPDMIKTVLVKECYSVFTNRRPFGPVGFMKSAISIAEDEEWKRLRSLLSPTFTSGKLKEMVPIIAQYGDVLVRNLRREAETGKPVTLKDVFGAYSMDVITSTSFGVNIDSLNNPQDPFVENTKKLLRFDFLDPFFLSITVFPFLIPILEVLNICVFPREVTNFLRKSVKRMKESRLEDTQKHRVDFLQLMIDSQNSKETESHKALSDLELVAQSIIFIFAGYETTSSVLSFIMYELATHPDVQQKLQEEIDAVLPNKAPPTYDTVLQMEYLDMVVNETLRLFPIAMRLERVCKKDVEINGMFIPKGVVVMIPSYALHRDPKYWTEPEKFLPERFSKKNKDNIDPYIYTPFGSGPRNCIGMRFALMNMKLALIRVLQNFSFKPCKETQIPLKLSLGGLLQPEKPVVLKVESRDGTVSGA
Chain of Cytochrome P450 2D6 (P10635 whole entry): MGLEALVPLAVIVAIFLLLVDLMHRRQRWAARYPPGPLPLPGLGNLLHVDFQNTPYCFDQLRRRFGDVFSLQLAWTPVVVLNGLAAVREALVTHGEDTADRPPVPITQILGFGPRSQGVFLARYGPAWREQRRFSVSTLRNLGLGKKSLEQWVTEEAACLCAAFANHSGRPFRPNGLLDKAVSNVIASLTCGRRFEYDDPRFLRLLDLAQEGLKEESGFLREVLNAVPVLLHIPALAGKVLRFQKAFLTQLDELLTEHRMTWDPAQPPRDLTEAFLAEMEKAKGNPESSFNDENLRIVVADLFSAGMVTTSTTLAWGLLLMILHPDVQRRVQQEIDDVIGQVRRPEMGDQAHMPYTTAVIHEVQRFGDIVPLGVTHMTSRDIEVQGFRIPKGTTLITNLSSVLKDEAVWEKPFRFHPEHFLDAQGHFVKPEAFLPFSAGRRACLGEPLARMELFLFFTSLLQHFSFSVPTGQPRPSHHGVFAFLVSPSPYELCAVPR

Row | Structure (SMILES) | AC50 (Cytochrome P450 1A2) | IC50 [1] | IC50 [2] | also measured
1 | O=C(OCc1ccc(Cl)cc1)c1ccccc1C(=O)c1ccccc1 | 3.55 µM (inconclusive) |  |  | AC50 (Cytochrome P450 2C19): 0.0891 µM (inconclusive); AC50 (Cytochrome P450 3A4): 17.8 µM (inconclusive)
2 | CCNc1ncc2nc(-c3cc(F)cc(F)c3)c(=O)n(CCc3ccccc3)c2n1 | 25.1 µM (inconclusive) |  |  | AC50 (Cytochrome P450 3A4): 12.6 µM (inconclusive)
3 | Cc1cccc(-c2nc(=S)c3c(o2)CCCC3)c1 |  | > 66 µM (inactive) | > 66 µM (inactive) | 
4 | CC(C)CCn1c(N2CCN(c3cccc(Cl)c3)CC2)nc2c1c(=O)[nH]c(=O)n2C |  |  |  | EC50 [3]: > 120 µM (not active); EC50 [4]: 18.9 µM (active); EC50 [5]: > 60 µM (not active); EC50 [6]: 26.1 µM (active); EC50 [7]: 33.5 µM (active)
5 | Cc1ccc2sc(C)[n+](CCC(C)S(=O)(=O)[O-])c2c1 (centres undefined) |  | > 66 µM (inactive) | > 66 µM (inactive) | 
6 | COc1ccccc1-c1nccc(NC2CCNCC2)n1 | 15.8 µM (inconclusive) |  |  | AC50 (Cytochrome P450 2C19): 1.58 µM (inconclusive)
7 | c1ccc(CN2CCN(c3nc(-c4ccccn4)nc4ccccc34)CC2)cc1 |  |  |  | EC50 [6]: 10.6 µM (active); EC50 [7]: 8.05 µM (active)
8 | CN1CCN(C(=O)c2ccc(-n3cccc3)cc2)CC1 | 25.1 µM (inconclusive) |  |  | AC50 (Cytochrome P450 2C19): 25.1 µM (inconclusive); AC50 (Cytochrome P450 2D6): 15.8 µM (inconclusive)
9 | CCOC(=O)c1sc(NC(=O)c2c(C)nn(Cc3ccccc3)c2C)cc1C |  |  |  | EC50 [6]: 30.4 µM (active); EC50 [7]: 27.7 µM (active); AC50 (INS1): 37.2 µM (active)
10 | CCSc1sccc1C1C(C#N)=C(N)N(c2cccnc2)C2=C1C(=O)CCC2 (centres undefined) |  | > 66 µM (inactive) | > 66 µM (inactive) | 
11 | Cn1c(=O)c(-c2ccc(Cl)cc2)nc2cnc(Nc3ccccc3)nc21 | 31.6 µM (inconclusive) |  |  | 
12 | COc1ccc(/C=C/C(=O)Nc2ccccc2C(=O)N2CCCC2)cc1 | 28.2 µM (inconclusive) |  |  | AC50 (Cytochrome P450 3A4): 1 µM (inconclusive)
13 | Cn1c(=O)c(C(=O)CSc2nnc(Nc3ccccc3)s2)c(N)n(Cc2ccccc2)c1=O |  |  |  | EC50 [6]: 8.05 µM (active); EC50 [7]: 9.15 µM (active)
14 | CCOc1cc(C(=S)N2CCOCC2)ccc1OC |  | > 66 µM (inactive) | > 66 µM (inactive) | 
15 | Cc1n[nH]c(SC(C(=O)c2ccccc2)c2ccccc2)n1 (centres undefined) | 39.8 µM (inconclusive) |  |  | AC50 (Cytochrome P450 2D6): 20 µM (inconclusive)
16 | CCC(C(=O)NC1CCCC1)N(C(=O)Cn1nnc(-c2ccc(C)o2)n1)c1cnc2ccccc2c1 (centres undefined) |  |  |  | EC50 [6]: 17.2 µM (active); EC50 [7]: 17.5 µM (active)
17 | CC1Cc2ccccc2N1C(=O)CSc1n[nH]c2c3cc(F)ccc3nc-2n1 (centres undefined) |  |  |  | EC50 [6]: 24.5 µM (active); EC50 [7]: 25 µM (active)
18 | COc1ccc(OCC(=O)NC(=S)Nc2ccc(S(=O)(=O)Nc3cc(OC)nc(OC)n3)cc2)cc1 |  | > 66 µM (inactive) | > 66 µM (inactive) | 
19 | Oc1ccc(C(=S)N2CCCCCC2)cc1 |  | > 66 µM (inactive) | > 66 µM (inactive) | 
20 | Cc1ccc(NC(=O)c2cc(-c3ccccc3)nn2-c2ccccc2)c(Br)c1 |  |  |  | EC50 [6]: 34.6 µM (active); EC50 [7]: 23.5 µM (active)
21 | CC(=O)c1c(N2CCOCC2)nc(=S)n(-c2ccccc2)c1C |  | > 66 µM (inactive) | > 66 µM (inactive) | 
22 | O=C(CSc1ccccc1C(=O)O)NC1CCCCCC1 |  | > 66 µM (inactive) | > 66 µM (inactive) | 
23 | CC(=O)NC(Cc1ccc(F)cc1)C(=O)O (centres undefined) | 0.01 µM (inconclusive) |  |  | 
24 | COc1cc2c(cc1OC)CN(C(=O)CSc1ccccc1C)CC2 |  | > 66 µM (inactive) | > 66 µM (inactive) | 
25 | Cc1ccccc1Nc1nc(N)nc(O)c1N=O |  | > 66 µM (inactive) | 38.2 µM (inactive) | 
